The values that follow are results of earlier work, collected in patent US9011938B2, “Methods and formulations for treating chronic liver disease” (priority 2008, dated 2015).

Structures can show the parent of a compound that is named as a salt.

In data set [1] the test system is rats with fatty liver induced by a high-fat diet.
The test system of data set [2] is tumor necrosis factor-alpha (TNF-α). The settings on record: subjects suffering from alcoholic hepatitis.
In data set [3] the test system is mice induced with an immunological liver injury.
Data set [4] deals with HCV internal ribosome entry site (IRES). The settings on record: in vitro, dose-dependant, not competitive binding.

Take `COc1ccc2cc3[n+](cc2c1OC)CCc1cc2c(cc1-3)OCO2` [berberine hydrochloride]: the hepatic fat degeneration result in data set [1] was “attenuates”.
Turning to `N[C@@H](CCC(=O)N[C@@H](CS)C(=O)NCC(=O)O)C(=O)O` [glutathione, Glutathione], the TNF-α activity result in data set [2] is recorded as “inhibits”.
As to `C[C@@]12C[C@@]3(O)O[C@@H](O1)[C@]1(COC(=O)c4ccccc4)[C@H]3C[C@@]12O[C@@H]1O[C@H](CO)[C@@H](O)[C@H](O)[C@H]1O` [paeoniflorin], in data set [3], the “increase in TNF-alpha, lipopolysaccharide binding protein, and CD14 mRNA expression in mouse liver” value is “significantly decreased”; the “serum ALT activities” value was “significantly decrease”.
For cyanocobalamin [vitamin B12], the “HCV IRES-dependent translation of a reporter gene” value in data set [4] is listed as “inhibit”.
